Measured values from PMC9784403 (Pharmaceuticals, 2022).
Values joined by “and” are separate entries in the source; they are usually repeats but may differ in a detail not shown here. Equal entries are not always repeated.

Columns and labels:
[1] = biological target: T1, σ2R/TMEM97 (Rattus norvegicus, UniProt Q5U3Y7); assay: Competitive receptor binding assay with [3H]DTG (σ1R masked with (+)-pentazocine)
T1 sequence (Q5U3Y7 1-176): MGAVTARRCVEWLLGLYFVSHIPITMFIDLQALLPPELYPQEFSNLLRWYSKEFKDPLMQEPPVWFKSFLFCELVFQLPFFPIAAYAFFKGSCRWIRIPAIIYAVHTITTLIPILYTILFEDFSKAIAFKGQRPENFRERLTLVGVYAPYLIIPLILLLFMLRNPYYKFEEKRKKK
Experimental: After incubation, the bound ligands were filtered using an M-24 Brandel filtration system (Brandel, Gaithersburg, MD, USA), collected on glass fiber paper (Whatman grade 934-AH, GE Healthcare Bio-Sciences, Pittsburgh, PA, USA), and counted using a MicroBeta2 Microplate counter 2450 (Perkin Elmer, Boston, MA, USA) or Wizard2 Automatic Gamma Counter 2470 (Perkin Elmer, Boston, MA, USA). The inhibition constant [14] values of the tested ligands were determined using the Cheng and Prussoff equation [35], and the mean Ki values ± SEM were reported for at least three independent experiments.

[2] = biological target: T1, σ2R/TMEM97; assay: Competitive receptor binding assay with [125I]RHM-4
Experimental: Briefly, the livers of female SD rats (Rockland, ME, USA) were dissected and homogenized using a Wheaton overhead stirrer (120 Vac Overhead Stirrer, Millville, NJ, USA) in 10 mL/g tissue weight of ice-cold 10mM Tris-HCl/0.32M Sucrose, pH 7.4. The crude homogenate was centrifuged for 10 min at 1000× g at 4 °C, the pellets were discarded, and the supernatant was further centrifuged at 31,000× g for 20 min at 4 °C. The supernatant was discarded, and the pellet was resuspended in 3 mL/g of ice-cold 10 mM Tris-HCl/0.32M sucrose, pH 7.4, and centrifuged again at 31,000× g for 20 min at 4 °C. After centrifugation, the pellets were resuspended in 1 mL of 50mM Tris-HCl, pH 7.4, and stored at −80 °C.
The inhibition constant [14] values of the tested ligands were determined using the Cheng and Prussoff equation [35], and the mean Ki values ± SEM were reported for at least three independent experiments.

[3] = tested on: TMEM97-knocked out HeLa cells; parameters: method as in PMID 30443021; conditions: cited from earlier work
[4] = biological target: T1, σ2R/TMEM97; format: binding; parameters: from tissue; host or cells: liver membranes of Sprague-Dawley rats
Experimental: All Kd and Bmax values were calculated via a nonlinear regression method using Prism, and the protein concentrations were determined using Lowry et al.’s method with BSA as the standard.

[5] = biological target: T2, σ1R (Cavia porcellus, UniProt Q60492); assay: σ1R competitive binding assay with [3H](+)-pentazocine; conditions: [3H](+)-pentazocine 5 nM; Guinea pig brain membrane; 90 min at 37 °C
T2 construct: 100 μg of the brain membrane from male Guinea pigs; from tissue; host or cells: brain membranes of male guinea pigs
Excerpt: For the σ1R assay, [^3H]Pentazocine (Perkin Elmer, Boston, MA, USA) was used as the radioligand to define the σ1R binding affinity of the test compounds, and the protocol followed the references published before with minor modification. […] Afterward, the filter paper collection, signal counting procedure, and data analysis were in line with the study of [^3H]DTG mentioned above.

T2 sequence (Q60492 whole entry): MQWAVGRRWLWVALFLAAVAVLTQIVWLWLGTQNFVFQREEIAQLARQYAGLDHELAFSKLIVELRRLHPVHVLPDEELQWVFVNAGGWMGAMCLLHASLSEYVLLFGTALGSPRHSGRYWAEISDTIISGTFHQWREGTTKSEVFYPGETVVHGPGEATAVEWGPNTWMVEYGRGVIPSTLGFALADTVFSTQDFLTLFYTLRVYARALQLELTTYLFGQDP

| SMILES | Ki [1] | Ki [2] | Ki [5] | further results |
| --- | --- | --- | --- | --- |
| Cc1ccc2c(c1)C1CN(C)CCC1N2C(=O)CSc1nnnn1-c1ccc(Cl)cc1 (centres unmarked) [AG-205, reference compound] | 807 ± 238 nM | 571 ± 82.1 nM | – | – |
| COc1cc2c(cc1OC)CN(CCc1ccc(NC(=O)c3cccc4c(=O)c5cccc(OC)c5[nH]c34)cc1)CC2 [Elacridar, reference compound] | 11.7 ± 0.7 nM | 0.9 ± 0.3 nM | – | – |
| COc1cccc2c1CCCC2CCCN1CCN(C2CCCCC2)CC1 (centres unmarked) [PB-28, reference compound] | – | 0.1 nM | – | – |
| COc1cc2c(cc1OC)CN(CCCCNC(=O)c1cc(I)cc(OC)c1OC)CC2 [RHM-4] | 11.7 ± 2.4 nM | 0.2 ± 0.1 nM | – | fold increase of σ2R/TMEM97 affinity by combination of fragments 1 and 2 ([2]; RHM-4 versus fragments 1 and 2): approximately 10 fold |
| C=CCN(C)CCCCCCOc1ccc(C(=O)c2ccc(Br)cc2)c(F)c1 [Ro 48-8071, reference compound] | 370 ± 230 nM | 73 ± 32.7 nM | – | – |
| COc1ccc(C)cc1NC(=O)OC1CC2CCCC(C1)N2CCCCCCN (centres unmarked) [SV119, reference compound] | 44.3 ± 7.3 nM | 35 ± 4 nM | – | – |
| Cc1ccccc1NC(=N)Nc1ccccc1C [[^3H]DTG, reference compound] | – | – | – | Kd ([3]; read-out: Kd of retained low-affinity binding site): ~300 nM |
| COc1cc2c(cc1OC)CN(CCCCNC(=O)c1cc([125I])cc(OC)c1OC)CC2 [[^125I]RHM-4] | – | – | – | specific binding after knocking out TMEM97 [3]: completely eliminated; Kd ([4]; SD rat liver membranes, saturation binding, 100 nM (+)-pentazocine added for [3H]DTG, n = 3): 0.2 nM; Bmax (binding capacity) ([4]; SD rat liver membranes, saturation binding, n = 3): 3894 ± 50 fmol/mg and 3894 ± 90 fmol/mg; fold higher σ2R/TMEM97 affinity than that of [3H]DTG ([4]; ratio of binding affinities of the two radioligands): ~ 50 fold |
| CCCCNC(=O)c1cc(C)ccc1OCCF [compound 1] | > 10000 nM | > 10000 nM | 1310 ± 87 nM | – |
| CCCCN1CCc2cc(OC)c(OC)cc2C1 [compound 2] | 10.4 ± 3.4 nM | 7 ± 3.9 nM | 38 ± 3.3 nM | – |
| COc1cc2c(cc1OC)CN(CCCCc1cc(-c3cc(C)ccc3OCCF)no1)CC2 [compound 3] | 2.3 ± 0.4 nM | 0.24 ± 0.02 nM | 715 ± 46 nM | – |
| COc1cc2c(cc1OC)CN(CCCCc1cc(-c3ccc(F)cc3)no1)CC2 [compound 4] | 0.6 ± 0.3 nM | 0.05 ± 0.01 nM | 800 ± 23 nM | – |
